Assay results reported in patent US10689377B2 (Mirati Therapeutics, Inc., priority 2017, dated 2020).

Target: KRas G12C (Homo sapiens, UniProt P01116, G12C)
Assay: Cellular inhibition of KRas G12C measured by Phospho-ERK in NCI-H358 cells
Assay type: cell-based
Conditions: pERK(Thr202/Tyr204) normalized with GAPDH, NCI-H358 cells, 3 hours; read-out: IC50
Summary of the method: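 Following 8-12 h attachment, NCI-H358 cells got serially diluted compound (0.5% DMSO) for 3 hours. Cells were then fixed, permeabilized with cold methanol, and stained for pERK(Thr202/Tyr204) and GAPDH. Ratios were converted to percent of DMSO control, with IC50 obtained by four-parameter regression.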

Sequence of KRas G12C (P01116 1-188 isoform P01116-2 G12C): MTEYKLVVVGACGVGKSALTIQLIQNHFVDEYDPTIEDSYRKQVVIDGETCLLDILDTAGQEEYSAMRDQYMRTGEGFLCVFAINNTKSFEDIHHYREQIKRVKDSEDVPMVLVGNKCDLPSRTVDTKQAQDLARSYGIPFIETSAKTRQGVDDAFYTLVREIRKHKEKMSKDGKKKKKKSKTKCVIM

SMILES	IC50
C=CC(=O)N1CCN(c2nc(OC[C@@H]3CCCN3C)nc3c2CCN(c2cccc4ccccc24)C3)CC1 [Example 200, (S)-1-(4-(2-((1-methylpyrrolidin-2-yl)methoxy)-7-(naphthalen-1-yl)-5,6,7,8-tetrahydropyrido[3,4-d]pyrimidin-4-yl)piperazin-1-yl)prop-2-en-1-one]	> 1000 nM
C=CC(=O)N1CCN(c2nc(OCCN3CCC(C#N)CC3)nc3c2CCN(c2cc(O)cc4ccccc24)C3)CC1 [Example 81, 1-(2-((4-(4-acryloylpiperazin-1-yl)-7-(3-hydroxynaphthalen-1-yl)-5,6,7,8-tetrahydropyrido[3,4-d]pyrimidin-2-yl)oxy)ethyl)piperidine-4-carbonitrile]	> 1000 nM
C=CC(=O)N1CCN(c2nc(O[C@H](C)CN(C)C)nc3c2CCN(c2c(C)ccc(F)c2O)C3)CC1 [Example 87, (R)-1-(4-(2-((1-(dimethylamino)propan-2-yl)oxy)-7-(3-fluoro-2-hydroxy-6-methylphenyl)-5,6,7,8-tetrahydropyrido[3,4-d]pyrimidin-4-yl)piperazin-1-yl)prop-2-en-1-one]	> 1000 nM
C=CC(=O)N1CCN(c2nc(OC[C@@H]3CCCN3C)nc3c2CCN(c2ncccc2C(F)(F)F)C3)CC1CC#N (stereo partly shown) [Example 241]	> 1000 nM
C=CC(=O)N1CCN(c2nc(OCC3CCCN(C)C3)nc3c2CCN(c2cc(O)cc4ccccc24)C3)CC1 (stereo not shown) [Example 72]	0.1 to 1000 nM
Cc1cccc2cccc(N3CCc4c(nc(OC[C@@H]5CCCN5C)nc4N4CCN(C(=O)/C=C/C(N)=O)[C@@H](CC#N)C4)C3)c12 [Example 500, (E)-4-((S)-2-(cyanomethyl)-4-(7-(8-methylnaphthalen-1-yl)-2-(((S)-1-methylpyrrolidin-2-yl)methoxy)-5,6,7,8-tetrahydropyrido[3,4-d]pyrimidin-4-yl)piperazin-1-yl)-4-oxobut-2-enamide]	0.1 to 1000 nM
C=CC(=O)N1CCN(c2nc(OC[C@@H]3CCCN3C)nc3c2CCN(c2c(F)cccc2C(F)(F)F)C3)CC1CC#N (stereo partly shown) [Example 412]	0.1 to 1000 nM
C=CC(=O)N1CCN(c2nc(OC[C@@H]3CCCN3C(C)C)nc3c2CCN(c2cccc4ccccc24)C3)CC1CC#N (stereo partly drawn) [Example 285, 2-[4-[2-[[(2S)-1-isopropylpyrrolidin-2-yl]methoxy]-7-(1-naphthyl)-6,8-dihydro-5H-pyrido[3,4-d]pyrimidin-4-yl]-1-prop-2-enoyl-piperazin-2-yl]acetonitrile]	0.1 to 1000 nM
C=CC(=O)N1CCN(c2nc(OCCNC(C)=O)nc3c2CCN(c2cc(O)cc4ccccc24)C3)CC1 [Example 59, N-(2-((4-(4-acryloylpiperazin-1-yl)-7-(3-hydroxynaphthalen-1-yl)-5,6,7,8-tetrahydropyrido[3,4-d]pyrimidin-2-yl)oxy)ethyl)acetamide]	> 1000 nM
C=CC(=O)N1CCN(c2nc(OC[C@@H]3CCCN3C)nc3c2CCN(c2ccc(F)cc2C(F)(F)F)C3)CC1CC#N (stereo partly drawn) [Example 413, 2-(1-acryloyl-4-(7-(4-fluoro-2-(trifluoromethyl)phenyl)-2-(((S)-1-methylpyrrolidin-2-yl)methoxy)-5,6,7,8-tetrahydropyrido[3,4-d]pyrimidin-4-yl)piperazin-2-yl)acetonitrile]	0.1 to 1000 nM
C=C(F)C(=O)N1CCN(c2ncnc3c2CCN(c2cncc4cccc(Cl)c24)C3)C[C@@H]1CC#N [Example 612, (S)-2-(4-(7-(5-chloroisoquinolin-4-yl)-5,6,7,8-tetrahydropyrido[3,4-d]pyrimidin-4-yl)-1-(2-fluoroacryloyl)piperazin-2-yl)acetonitrile]	> 1000 nM
C=CC(=O)N1CCN(c2nc(OC[C@@H]3CCN(C)C3)nc3c2CCN(c2ccccc2C(F)(F)F)C3)CC1CC#N (stereo partly drawn) [Example 281, 2-(1-acryloyl-4-(2-(((R)-1-methylpyrrolidin-3-yl)methoxy)-7-(2-(trifluoromethyl)phenyl)-5,6,7,8-tetrahydropyrido[3,4-d]pyrimidin-4-yl)piperazin-2-yl)acetonitrile]	0.1 to 1000 nM
C=CC(=O)N1CCN(c2nc(OCCCN3CCOCC3)nc3c2CCN(c2cc(O)cc4ccccc24)C3)CC1 [Example 74, 1-(4-(7-(3-hydroxynaphthalen-1-yl)-2-(3-morpholinopropoxy)-5,6,7,8-tetrahydropyrido[3,4-d]pyrimidin-4-yl)piperazin-1-yl)prop-2-en-1-one]	0.1 to 1000 nM
C=CC(=O)N1CCN(c2nc(OC[C@@H]3CCCN3C)nc3c2CCN(c2cccc(F)c2OC)C3)CC1CC#N (stereo partly drawn) [Example 308, 2-(1-acryloyl-4-(7-(3-fluoro-2-methoxyphenyl)-2-(((S)-1-methylpyrrolidin-2-yl)methoxy)-5,6,7,8-tetrahydropyrido[3,4-d]pyrimidin-4-yl)piperazin-2-yl)acetonitrile]	0.1 to 1000 nM

Next, values leading:

IC50	SMILES
0.1 to 1000 nM	C=CC(=O)N1CCN(c2nc(OC[C@@H]3CCCN3CC)nc3c2CCN(c2ccc(F)c4ccccc24)C3)CC1CC#N (stereo partly drawn) [Example 322, 2-(1-acryloyl-4-(2-(((S)-1-ethylpyrrolidin-2-yl)methoxy)-7-(4-fluoronaphthalen-1-yl)-5,6,7,8-tetrahydropyrido[3,4-d]pyrimidin-4-yl)piperazin-2-yl)acetonitrile]
> 1000 nM	C=CC(=O)N1CCN(c2nc(O[C@H](C)CN(C)C)nc3c2CCN(c2cc(O)ccc2OC)C3)CC1 [Example 94, (R)-1-(4-(2-((1-(dimethylamino)propan-2-yl)oxy)-7-(5-hydroxy-2-methoxyphenyl)-5,6,7,8-tetrahydropyrido[3,4-d]pyrimidin-4-yl)piperazin-1-yl)prop-2-en-1-one]
0.1 to 1000 nM	C=CC(=O)N1CCN(c2nc(OCCN3CCCC(F)(F)C3)nc3c2CCN(c2cccc4cccc(Cl)c24)C3)C[C@@H]1CC#N [Example 455, 2-[(2S)-4-[7-(8-chloro-1-naphthyl)-2-[2-(3,3-difluoro-1-piperidyl)ethoxy]-6,8-dihydro-5H-pyrido[3,4-d]pyrimidin-4-yl]-1-prop-2-enoyl-piperazin-2-yl]acetonitrile]
> 1000 nM	C=CC(=O)N1CCN(c2nc(OC[C@H]3CCC(=O)N3)nc3c2CCN(c2cc(O)cc4ccccc24)C3)CC1 [Example 58, (R)-5-(((4-(4-acryloylpiperazin-1-yl)-7-(3-hydroxynaphthalen-1-yl)-5,6,7,8-tetrahydropyrido[3,4-d]pyrimidin-2-yl)oxy)methyl)pyrrolidin-2-one]
0.1 to 1000 nM	CO[C@@H]1C[C@H](COc2nc3c(c(N4CCN(C(=O)/C=C/CO)[C@@H](CC#N)C4)n2)CCN(c2cccc4cccc(C)c24)C3)N(C)C1 [Example 523, 2-[(2S)-1-[(E)-4-hydroxybut-2-enoyl]-4-[2-[[(2R,4R)-4-methoxy-1-methyl-pyrrolidin-2-yl]methoxy]-7-(8-methyl-1-naphthyl)-6,8-dihydro-5H-pyrido[3,4-d]pyrimidin-4-yl]piperazin-2-yl]acetonitrile]
0.1 to 1000 nM	C=CC(=O)N1CCN(c2nc(OC[C@@H]3C[C@@H](F)CN3C)nc3c2CCN(c2cccc(C)c2C)C3)C[C@@H]1CC#N [Example 437, 2-((S)-1-acryloyl-4-(7-(2,3-dimethylphenyl)-2-(((2S,4R)-4-fluoro-1-methylpyrrolidin-2-yl)methoxy)-5,6,7,8-tetrahydropyrido[3,4-d]pyrimidin-4-yl)piperazin-2-yl)acetonitrile]
0.1 to 1000 nM	C=CC(=O)N1CCN(c2nc(OC[C@@H]3CCCN3C)nc3c2CCN(c2ccc(F)cc2C(F)(F)F)C3)CC1CC#N (stereo partly shown) [Example 276]
> 1000 nM	C=CC(=O)N1CCN(c2nc(OC[C@@H]3CCCN3C)nc3c2CCN(c2ccncc2C(F)(F)F)C3)CC1CC#N (stereo partly drawn) [Example 375, 2-(1-acryloyl-4-(2-(((S)-1-methylpyrrolidin-2-yl)methoxy)-7-(3-(trifluoromethyl)pyridin-4-yl)-5,6,7,8-tetrahydropyrido[3,4-d]pyrimidin-4-yl)piperazin-2-yl)acetonitrile]
0.1 to 1000 nM	C=CC(=O)N1CCN(c2nc(OC[C@H]3CN(C)[C@H](C)CO3)nc3c2CCN(c2cccc4ccccc24)C3)C[C@@H]1CC#N [Example 451, 2-((S)-1-Acryloyl-4-(2-(((2R,5R)-4,5-dimethylmorpholin-2-yl)methoxy)-7-(naphthalen-1-yl)-5,6,7,8-tetrahydropyrido[3,4-d]pyrimidin-4-yl)piperazin-2-yl)acetonitrile]
> 1000 nM	C=CC(=O)N1CCN(c2nc(OCCN3CCOCC3)nc3c2CCN(c2cc(O)cc4ccccc24)C3)CC1 [Example 117, 1-(4-(7-(3-hydroxynaphthalen-1-yl)-2-(2-morpholinoethoxy)-5,6,7,8-tetrahydropyrido[3,4-d]pyrimidin-4-yl)piperazin-1-yl)prop-2-en-1-one]
> 1000 nM	C=CC(=O)N1CCN(c2nc(O[C@H]3CCCN(C)C3)nc3c2CCN(c2cc(O)cc4ccccc24)C3)CC1 [Example 66, (S)-1-(4-(7-(3-hydroxynaphthalen-1-yl)-2-((1-methylpiperidin-3-yl)oxy)-5,6,7,8-tetrahydropyrido[3,4-d]pyrimidin-4-yl)piperazin-1-yl)prop-2-en-1-one]
> 1000 nM	C=CC(=O)N1CCN(c2nc(OC3CCN(C)C3)nc3c2CCN(c2cc(O)cc4ccccc24)C3)CC1 (stereo not shown) [Example 23, 1-(4-(7-(3-hydroxynaphthalen-1-yl)-2-((1-methylpyrrolidin-3-yl)oxy)-5,6,7,8-tetrahydropyrido[3,4-d]pyrimidin-4-yl)piperazin-1-yl)prop-2-en-1-one]
> 1000 nM	C=CC(=O)N1CCN(c2nc(O[C@H](C)CN(C)C)nc3c2CCN(c2cc(O)cc(Cl)c2C(C)C)C3)CC1 [Example 76, (R)-1-(4-(7-(3-chloro-5-hydroxy-2-isopropylphenyl)-2-((1-(dimethylamino)propan-2-yl)oxy)-5,6,7,8-tetrahydropyrido[3,4-d]pyrimidin-4-yl)piperazin-1-yl)prop-2-en-1-one]
0.1 to 1000 nM	C=CC(=O)N1CCN(c2nc(OC[C@@H]3CCCN3C)nc3c2CCN(c2cccc(Cl)c2C(F)(F)F)C3)CC1CC#N (stereo partly drawn) [Example 414, 2-(1-acryloyl-4-(7-(3-chloro-2-(trifluoromethyl)phenyl)-2-(((S)-1-methylpyrrolidin-2-yl)methoxy)-5,6,7,8-tetrahydropyrido[3,4-d]pyrimidin-4-yl)piperazin-2-yl)acetonitrile]
